In patent US12527886B2, “Radiopharmaceuticals and composition for thrombus imaging” (THE ASAN FOUNDATION, priority 2020, dated 2026):

Legend:
[1] = Stability of Tc-99m labeled compound by radioTLC; type: physicochemical; conditions: for Eluent A / Eluent B: in % (unit assumed)
Description: (§1) After 2.0 mg of GP-104 was dissolved in 1.8 mL of water for injection and 0.2 mL of ethanol, the resulting solution was allowed to stand with a pH of about 5 at room temperature for 10 minutes when 20 μL of SnCl2 (15 mg/mL) and 2 mL of Tc-99m were added thereto, and the reaction was terminated by adjusting the pH to 7 using a NaOH solution. Stability up to 4 hours was confirmed by radioTLC under conditions of pH 5 and pH 7, respectively, and the results are summarized in the following Table 1. (TLC analysis conditions: iTLC was used, Eluent A: methyl ethyl ketone 100%, Eluent B: pyridine:acetic acid:purified water=3:5:15, and purity calculation: Eluent A−Eluent B)
as §1, with “ethanol, pH was adjusted to about 5 and” for “ethanol,”, “stand” for “stand with a pH of about 5”, “(15 mg/mL), 20 μL of cysteine (10” for “(15”, “Table 2.” for “Table 1.”
(§2) After 2.0 mg of GP-105 was dissolved in 1.8 mL of water for injection and 0.2 mL of ethanol, the pH was adjusted to about 5 and the resulting solution was allowed to stand at room temperature for 10 minutes when 20 μL of SnCl2 (15 mg/mL) and 2 mL of Tc-99m were added thereto, and the reaction was terminated by adjusting the pH to 7 using a NaOH solution. Stability until 4 hours under conditions of pH 5 and pH 7 was each confirmed by radioTLC. (TLC analysis conditions: iTLC was used, Eluent A: methyl ethyl ketone 100%, Eluent B: pyridine:acetic acid:purified water=3:5:15, and purity calculation: Eluent A−Eluent B)
as §2, with “ethanol,” for “ethanol, the”, “(15 mg/mL), 20 μL of cysteine (10” for “(15”

glycoprotein IIb/IIIa = target: T1, glycoprotein IIb/IIIa (Rattus norvegicus, UniProt A0A8I6GGN2+Q8R2H2); assay: Glycoprotein IIb/IIIa specific uptake in thrombotic disease model, gamma counter / microSPECT; type: in vivo, rats
T1 construct: a disease model in which a thrombus was formed with glycoprotein IIb/IIIa overexpressed; from tissue; host or cells: in vivo rat carotid artery thrombus (ferric chloride model)
T1 sequence (A0A8I6GGN2 32-1037): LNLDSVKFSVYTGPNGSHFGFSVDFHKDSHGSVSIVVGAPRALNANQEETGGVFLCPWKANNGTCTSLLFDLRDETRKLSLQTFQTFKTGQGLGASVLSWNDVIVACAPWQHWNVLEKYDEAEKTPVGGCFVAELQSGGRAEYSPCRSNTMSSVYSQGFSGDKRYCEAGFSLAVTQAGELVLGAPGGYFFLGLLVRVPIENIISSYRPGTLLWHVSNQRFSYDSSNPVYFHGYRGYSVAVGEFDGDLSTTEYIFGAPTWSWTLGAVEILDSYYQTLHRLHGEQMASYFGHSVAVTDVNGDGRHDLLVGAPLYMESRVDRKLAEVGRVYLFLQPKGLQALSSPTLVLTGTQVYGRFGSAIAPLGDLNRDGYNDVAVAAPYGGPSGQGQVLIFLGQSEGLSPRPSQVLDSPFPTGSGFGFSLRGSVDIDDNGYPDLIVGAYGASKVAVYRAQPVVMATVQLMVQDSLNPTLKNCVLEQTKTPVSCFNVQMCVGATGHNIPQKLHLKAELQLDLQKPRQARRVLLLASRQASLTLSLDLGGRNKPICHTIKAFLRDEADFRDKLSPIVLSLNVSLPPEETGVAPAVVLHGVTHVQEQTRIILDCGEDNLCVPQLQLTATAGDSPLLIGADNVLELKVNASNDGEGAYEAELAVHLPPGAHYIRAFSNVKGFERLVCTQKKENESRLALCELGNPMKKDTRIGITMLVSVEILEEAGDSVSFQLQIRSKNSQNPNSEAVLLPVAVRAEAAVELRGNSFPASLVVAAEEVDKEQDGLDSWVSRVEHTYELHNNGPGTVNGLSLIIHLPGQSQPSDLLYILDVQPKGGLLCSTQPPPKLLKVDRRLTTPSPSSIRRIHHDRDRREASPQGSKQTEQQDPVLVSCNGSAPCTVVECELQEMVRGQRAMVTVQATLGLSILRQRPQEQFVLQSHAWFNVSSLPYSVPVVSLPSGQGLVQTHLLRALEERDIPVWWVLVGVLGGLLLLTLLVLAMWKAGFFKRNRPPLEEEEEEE
T1 sequence (Q8R2H2 26-787): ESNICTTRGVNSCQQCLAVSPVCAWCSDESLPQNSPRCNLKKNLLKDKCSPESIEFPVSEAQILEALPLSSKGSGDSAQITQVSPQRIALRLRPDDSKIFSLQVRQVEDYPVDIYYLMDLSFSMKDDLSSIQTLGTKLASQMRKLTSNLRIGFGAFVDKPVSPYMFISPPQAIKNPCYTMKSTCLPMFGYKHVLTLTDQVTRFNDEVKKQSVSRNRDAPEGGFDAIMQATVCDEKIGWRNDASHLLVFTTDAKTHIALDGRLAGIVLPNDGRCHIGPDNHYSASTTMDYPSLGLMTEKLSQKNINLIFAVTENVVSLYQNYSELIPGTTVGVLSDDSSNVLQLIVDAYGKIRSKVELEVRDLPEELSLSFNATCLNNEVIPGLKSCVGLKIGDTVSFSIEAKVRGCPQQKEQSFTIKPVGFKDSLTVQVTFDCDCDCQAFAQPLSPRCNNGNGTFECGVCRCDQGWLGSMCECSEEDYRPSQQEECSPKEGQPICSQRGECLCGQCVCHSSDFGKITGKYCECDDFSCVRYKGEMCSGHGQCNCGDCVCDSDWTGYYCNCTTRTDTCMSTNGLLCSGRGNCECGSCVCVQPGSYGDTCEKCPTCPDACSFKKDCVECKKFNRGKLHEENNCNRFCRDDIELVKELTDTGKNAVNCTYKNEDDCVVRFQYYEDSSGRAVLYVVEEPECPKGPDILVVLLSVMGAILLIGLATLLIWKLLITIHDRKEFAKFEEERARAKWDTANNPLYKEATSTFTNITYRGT
From the text: After 6-week-old rats were anesthetized to make a thrombotic disease model, the carotid artery was secured by opening the skin on the carotid artery side. Then, a filter paper soaked with a 5% ferric chloride solution was exposed on the artery, and then washed three times or more with physiological saline, and the incised skin was sutured again to make a model. […]

[2] = Stability of Tc-99m labeled compound, labeling purity by HPLC; type: physicochemical; conditions: Ex 3-3
[3] = Ex 3-1, no cysteine, pH 5, 0 hour
[4] = Ex 3-1, no cysteine, pH 5, 0.5 hours
[5] = Ex 3-1, no cysteine, pH 5, 1.0 hour
[6] = Ex 3-1, no cysteine, pH 5, 1.5 hours
[7] = Ex 3-1, no cysteine, pH 5, 2.0 hours
[8] = Ex 3-1, no cysteine, pH 5, 3.0 hours
[9] = Ex 3-1, no cysteine, pH 5, 4.0 hours
[10] = Ex 3-1, no cysteine, pH 7, 0 hour
[11] = Ex 3-1, no cysteine, pH 7, 0.5 hours
[12] = Ex 3-1, no cysteine, pH 7, 1.0 hour
[13] = Ex 3-1, no cysteine, pH 7, 1.5 hours
[14] = Ex 3-1, no cysteine, pH 7, 2.0 hours
[15] = Ex 3-1, no cysteine, pH 7, 3.0 hours
[16] = Ex 3-1, no cysteine, pH 7, 4.0 hours
[17] = Ex 3-2, cysteine, pH 5, 0.5 hours
[18] = Ex 3-2, cysteine, pH 5, 1.0 hour
[19] = Ex 3-2, cysteine, pH 5, 1.5 hours
[20] = Ex 3-2, cysteine, pH 5, 2.0 hours
[21] = Ex 3-2, cysteine, pH 5, 3.0 hours
[22] = Ex 3-2, cysteine, pH 5, 4.0 hours
[23] = Ex 3-2, cysteine, pH 7, 0.5 hours
[24] = Ex 3-2, cysteine, pH 7, 1.0 hour
[25] = Ex 3-2, cysteine, pH 7, 1.5 hours
[26] = Ex 3-2, cysteine, pH 7, 2.0 hours
[27] = Ex 3-2, cysteine, pH 7, 3.0 hours
[28] = Ex 3-2, cysteine, pH 7, 4.0 hours
[29] = gamma counter, sacrificed at the 2nd hour

Purity [1, 3]: 90.28% | Eluent A [1, 3]: 95.7 | Eluent B [1, 3]: 5.42 | Purity [1, 4]: 91.36% | Eluent A [1, 4]: 95.42 | Eluent B [1, 4]: 4.06 | Purity [1, 5]: 82.28% | Eluent A [1, 5]: 98.43 | Eluent B [1, 5]: 16.15 | Purity [1, 6]: 72.79% | Eluent A [1, 6]: 85.7 | Eluent B [1, 6]: 12.91 | Purity [1, 7]: 70.11% | Eluent A [1, 7]: 91.79 | Eluent B [1, 7]: 21.68 | Purity [1, 8]: 67.71% | Eluent A [1, 8]: 91.64 | Eluent B [1, 8]: 23.93 | Purity [1, 9]: 55.93% | Eluent A [1, 9]: 80.48 | Eluent B [1, 9]: 24.55 | Purity [1, 10]: 90.59% | Eluent A [1, 10]: 98.26 | Eluent B [1, 10]: 7.67 | Purity [1, 11]: 78.04% | Eluent A [1, 11]: 92.82 | Eluent B [1, 11]: 14.78 | Purity [1, 12]: 78.31% | Eluent A [1, 12]: 94.51 | Eluent B [1, 12]: 16.2 | Purity [1, 13]: 82.7% | Eluent A [1, 13]: 96.11 | Eluent B [1, 13]: 13.41 | Purity [1, 14]: 76.61% | Eluent A [1, 14]: 96.22 | Eluent B [1, 14]: 19.61 | Purity [1, 15]: 77.93% | Eluent A [1, 15]: 87.58 | Eluent B [1, 15]: 9.65 | Purity [1, 16]: 54.14% | Eluent A [1, 16]: 73.22 | Eluent B [1, 16]: 19.08 | Purity ([1]; Ex 3-2, cysteine, pH 5, 0 hour): 85.97% | Eluent A ([1]; Ex 3-2, cysteine, pH 5, 0 hour): 89.51 | Eluent B ([1]; Ex 3-2, cysteine, pH 5, 0 hour): 3.54 | Purity [1, 17]: 87.89% | Eluent A [1, 17]: 93.51 | Eluent B [1, 17]: 5.62 | Purity [1, 18]: 90.39% | Eluent A [1, 18]: 93.61 | Eluent B [1, 18]: 3.22 | Purity [1, 19]: 93.47% | Eluent A [1, 19]: 95.55 | Eluent B [1, 19]: 2.08 | Purity [1, 20]: 82.97% | Eluent A [1, 20]: 91.17 | Eluent B [1, 20]: 8.2 | Purity [1, 21]: 86.06% | Eluent A [1, 21]: 89.61 | Eluent B [1, 21]: 3.55 | Purity [1, 22]: 87.56% | Eluent A [1, 22]: 91.99 | Eluent B [1, 22]: 4.43 | Purity ([1]; Ex 3-2, cysteine, pH 7, 0 hour): 96.94% | Eluent A ([1]; Ex 3-2, cysteine, pH 7, 0 hour): 100 | Eluent B ([1]; Ex 3-2, cysteine, pH 7, 0 hour): 3.06 | Purity [1, 23]: 93.36% | Eluent A [1, 23]: 98.3 | Eluent B [1, 23]: 4.94 | Purity [1, 24]: 96.35% | Eluent A [1, 24]: 98.27 | Eluent B [1, 24]: 1.92 | Purity [1, 25]: 97.69% | Eluent A [1, 25]: 100 | Eluent B [1, 25]: 2.31 | Purity [1, 26]: 97.12% | Eluent A [1, 26]: 100 | Eluent B [1, 26]: 2.88 | Purity [1, 27]: 94.14% | Eluent A [1, 27]: 100 | Eluent B [1, 27]: 5.86 | Purity [1, 28]: 95.76% | Eluent A [1, 28]: 100 | Eluent B [1, 28]: 4.24 | Purity ([1]; addition of cysteine, pH of 7, even after 4 hours (text to Table 2)): ≥ 90% | specific uptake in the disease model (glycoprotein IIb/IIIa): high specific uptake | target to non target ratio (glycoprotein IIb/IIIa; gamma counter, 2nd hour): 2.0 | counts per minute (CPM)/g value, left artery (glycoprotein IIb/IIIa; [29]): 1.3 CPM/g | counts per minute (CPM)/g value, right artery (glycoprotein IIb/IIIa; [29]): 2.5 CPM/g | purity (HPLC) ([2]; addition of cysteine after reaction, pH 3, 3 hours): 42.46% | purity (HPLC) ([2]; addition of cysteine before reaction, pH 3, 0 hour): 95.6% | purity (HPLC) ([2]; addition of cysteine before reaction, pH 7, 3 hours): 98.53%
Structure (SMILES): O=C(O)C[C@H](NC(=O)[C@@H]1CCCN(C(=O)CCC2CCNCC2)C1)c1cncc(OCCNC(=O)CN2CCN3CCN(CC(=O)O)CC(=O)[O][99Tc+]([O]C(=O)C3)[O]C(=O)C2)c1 [[Tc-99m]GP-104]
background radioactivity excretion (glycoprotein IIb/IIIa; microSPECT until 4 hours): quick background radioactivity excretion effect
